Source: patent US6913925B1, “Human mesencephalon cell lines and methods of use therefor” (Signal Pharmaceuticals LLC, priority 1998, dated 2005)

B1: GDNF: glial cell-derived neurotrophic factor (protein, UniProt P39905 78-211, looked up)
Glial cell line-derived …: SPDKQMAVLPRRERNRQAAAANPENSRGKGRRGQRGKNRGCVLTAIHLNVTDLGLGYETKEELIFRYCSGSCDAAETTYDKILKNLSRNRRLVSDKVGQACCRPIAFDDDLSFLDDNLVYHILRKHSAKRCGCI
B2: CNTF: ciliary neurotrophic factor (protein, UniProt P26441 1-200, looked up)
Ciliary neurotrophic factor: MAFTEHSPLTPHRRDLCSRSIWLARKIRSDLTALTESYVKHQGLNKNINLDSADGMPVASTDQWSELTEAERLQENLQAYRTFHVLLARLLEDQQVHFTPTEGDFHQAIHTLLLQVAAFAYQIEELMILLEYKIPRNEADGMPINVGDGGLFEKKLWGLKVLQELSQWTVRSIHDLRFISSHQTGIPARGSHYIANNKKM

Each molecule was assayed on immortalized human mesencephalon cells (assay: Differentiation of conditionally-immortalized human mesencephalon cell lines into neurons). Conditions: added together: forskolin 10 μM, GDNF 20 ng/mL, CNTF 20 ng/mL, IGF-I 100 ng/mL, BDNF 20 ng/mL.
Assay type: cell-based
Source text: Conditionally-immortalized human mesencephalon neural precursor cell lines (which may, but need not, be clonal) may generally be induced to differentiate into neurons by inhibiting the expression of the growth-promoting gene (i.e., suppressing the production and/or activity of the growth-promoting protein). For example, if the gene encoding the growth-promoting protein is under the control of an externally-regulatable promoter, the conditions (e.g. temperature or composition of medium) may be modified to suppress transcription of the growth-promoting gene. For the tetracycline-controlled gene expression system discussed above, differentiation may be achieved by the addition of tetracycline to suppress transcription of the growth-promoting gene. In general, 1-5 μg/mL tetracycline for 48 hours is sufficient to begin neuronal morphological differentiation, and the number of differentiated neurons increases during subsequent days. Such differentiation may be performed, for example, by plating the cells on a suitable substrate (e.g., one or a combination of polyamino acid, fibronectin, laminin or tissue culture plastic) in a medium consisting of DMEM/F-12 with N2 supplement and tetracycline (1-5 μg/mL). […] Culture medium may then be refreshed (e.g., every 2-4 days).
An increase in TH expression was also observed for some cell lines, indicating the presence of dopaminergic neurons.
One clone (MESII(1)-C2) was differentiated in DMEM/F-12 with N2 supplement, tetracycline (1 μg/mL), forskolin (10 μM), GDNF (20 ng/mL) and BDNF (20 ng/mL). Following differentiation, a high number of MAP2ab and TH immunoreactive cells were observed. For such immunocytochemistry, cells were fixed with 4% paraformaldehyde, and were incubated with primary antibody in blocking buffer for 2 hours at room temperature, rinsed, and then incubated with a fluorescein (FITC)- or Texas red-conjugated species-specific secondary antibody (Jackson lmmunoresearch Laboratories, Inc., West Grove, Pa.) in blocking buffer for another hour at room temperature. Cultures were then rinsed three times with PBS and coverslipped with PVA/DABCO before scoring and photographing representative fields.

Q: Which “enhancement of differentiation by addition to DMEM/F-12 with N2 supplement and tetracycline” value (from here on “enhancement of differentiation”) does the source give for IGF-I: insulin-like growth factor here?
A: differentiation is enhanced

Q: How did the “enhancement of differentiation” value turn out when BDNF: brain-derived neurotrophic factor was run?
A: differentiation is enhanced

Q: B1 was tested. Which “enhancement of differentiation” value did it give?
A: differentiation is enhanced

Q: Which “enhancement of differentiation” value does the source give for B2 here?
A: differentiation is enhanced
